Data from patent publication US8323695B2, “Method for stabilizing phenylephrine” (McNeil-PPC, Inc., priority 2007, dated 2012).
Counter-ions that a name gives are not always drawn.

Key:
[1] = Stability of phenylephrine in solid formulations after spray drying an acidic solution; format: physicochemical
Excerpt: Phenylephrine is known to experience physical and chemical degradation. Degradation of phenylephrine may be caused by a variety of factors including, but not limited to, the presence of oxygen, moisture, reducible sugars, bases, high temperatures, etc. […] Degradation of phenylephrine may be noticed by a change in color, e.g. changing from a whitish color to a darker, blackish color. Additionally, phenylephrine may degrade chemically as recorded by degradation peaks during analysis, such as an HPLC analysis. It is desirable to prevent, reduce or minimize the degradation of phenylephrine. An embodiment of the present invention provides a stable pharmaceutical composition having phenylephrine in a therapeutically effective amount wherein the phenylephrine has been spray dried. An additional embodiment of the present invention provides a stable composition of phenylephrine in a therapeutically effective amount wherein the phenylephrine has been layered or sprayed onto a substrate.

[2] = Formation of phenylephrine-maleate adducts as a function of pH; format: physicochemical; conditions: combined with chlorpheniramine maleate
Excerpt: Phenylephrine may be unstable in the presence of active ingredients which are the soluble salts of maleic acid. Phenylephrine-Maleate adducts form when phenylephrine hydrochloride is combined with chlorpheniramine maleate in solution and in solid dosage forms. This is due to the presence of phenylephrine with maleic acid. It was discovered that a pH below 6.0 yields low levels of one type of phenylephrine-maleate adduct (degradant #1) and it was also discovered that a pH above 4.5 yields low levels of a second type of phenylephrine-maleate adduct (degradant #2).

Row | stability of phenylephrine in solid formulations [1] | levels of second type of phenylephrine-maleate adduct (degradant #2) ([2]; pH above 4.5) | levels of phenylephrine-maleate adduct (degradant #1) ([2]; pH below 6.0) | SMILES
1 | increases the stability |  |  | CNC[C@H](O)c1cccc(O)c1 [phenylephrine]
2 |  | low levels | low levels | CNC[C@H](O)c1cccc(O)c1 [phenylephrine hydrochloride]
